Data from US9856290B2, “Glycopeptide compositions and uses thereof” (SUSSEX RESEARCH LABORATORIES INC., priority 2013, dated 2018).
Where a SMILES comes first, the peptide text is derived from it.

Key:
fibroblast = details: under certain conditions; cited from earlier work
[1] = tested on: Human Dermal Fibroblasts (KMST-6); experiment: Cell morphology (phase contrast images); type: cell-based; details: 5 μM
Experimental: KMST-6 cells (Japan Health Sciences Foundation, JCRB0433) were seeded at 7,000 cells/ml in 12-well tissue culture treated plates (Falcon, 353043) in complete media. The complete media consists of the following: MEM/EBSS (Hyclone, SH30024.01), 10% Heat-Inactivated FBS (Gibco, 10082-147), 1% L-Glutamine (Hyclone, SH30031.01), 1% Nucleosides (800 mg/L Adenosine, 850 mg/L Guanidine, 730 mg/L Cytidine, 730 mg/L Uridine and 240 mg/L Thymidine), 1% Penicillin/Streptomycin (HyClone, SV30010), 1% Sodium Pyruvate (HyClone, SH30239.01), 1% Non-Essential Amino Acids (Hyclone, SH30238.01) and 0.04% Gentamicin (Gibco, 15710-064). Cells were grown for 2 days prior to treatments. The media was aspirated and cells were washed with 1×PBS (Fisher, SH30256.01) and treated with 5 μM glycopeptides (GP001-1, GP002-3, GP002-7, GP003-9, GP004-3 and GP004-4), reference (Pal-KTTKS, CPC Scientific, 822197), and control (DMSO, Fisher, BP231-100) in serum-free media supplemented with 50 μg/mL Sodium Ascorbate (Sigma, A4034) and 80 μg/mL β-Aminopropionate Fumarate (Sigma, A3134). The treated cells were incubated at 37° C. and 5% CO2 for 48 and 72 hours. At each time point, images were taken with an Olympus Opti-Tech Scientific Microscope (Lumenera, Infinity 2 camera at 10× magnification) and changes in cell size and morphology were recorded. […]

[2] = tested on: Human Dermal Fibroblasts (KMST-6); experiment: Cell Viability MTT Assay; type: cell-based; details: 5 μM, KMST-6, 48 and 72 hours; toxicity defined as viability less than 50% of control
Experimental: KMST-6 cells (Japan Health Sciences Foundation, JCRB0433) were seeded at 7,000 cells/ml in complete media. The complete media consists of the following: MEM/EBSS (Hyclone, SH30024.01), 10% Heat-Inactivated FBS (Gibco, 10082-147), 1% L-Glutamine (Hyclone, SH30031.01), 1% Nucleosides (800 mg/L Adenosine, 850 mg/L Guanidine, 730 mg/L Cytidine, 730 mg/L Uridine and 240 mg/L Thymidine), 1% Penicillin/Streptomycin (HyClone, SV30010), 1% Sodium Pyruvate (HyClone, SH30239.01), 1% Non-Essential Amino Acids (Hyclone, SH30238.01) and 0.04% Gentamicin (Gibco, 15710-064). Cells were grown for 2 days prior to treatments. […] The absorbance was measured with a microplate reader (Molecular Devices, SpectraMax M2e) at 570 nm. […]
To determine effects on cell viability as a measure of toxicity, 5 μM of the 6 exemplary glycopeptides were applied to Human Dermal Fibroblasts (KMST-6) as previously described. […] The absorbance was measured with a microplate reader (Molecular Devices, SpectraMax M2e) at 570 nm. Three or more independent experiments were performed and statistical significance was determined using One-way ANOVA (p<0.05). […]

cell confluence compared to control and glycopeptide treated cells ([1]; KMST-6): demonstrated decrease in cell confluence
SMILES: CCCCCCCCCCCCCCCC(=O)N[C@@H](CCCCN)C(=O)N[C@H](C(=O)N[C@H](C(=O)N[C@@H](CCCCN)C(=O)N[C@@H](CO)C(=O)O)[C@@H](C)O)[C@@H](C)O [Reference, Pal-KTTKS] (HELM PEPTIDE1{[CCCCCCCCCCCCCCCC(=O)[*:2]].K.T.T.K.S}$$$$V2.0)
fibroblast cell viability (fibroblast): decrease fibroblast cell viability | toxicity as observed through phase-contrast morphology ([1]; KMST-6, 48 and 72 hours): visibly interfered with cell viability | cell viability as a measure of toxicity (MTT assay) [2]: significant decrease in cell viability
